IC50 and minimal effective concentration data for three compounds are collected here from patent US9023849B2, “Substituted fused imidazoles and pyrazoles and use thereof” (Bayer Intellectual Property GmbH, priority 2012, dated 2015).

One assay concerns the target human PDE 5 (Homo sapiens (Human), UniProt O76074). The experiment in a line: Inhibition of human phosphodiesterase 5 (PDE 5), SPA assay. The format is biochemical. The conditions noted are these: PDE 5 preparation from human platelets, [8-3H]cGMP substrate. As for the experimental part: B-6. Inhibition of Human Phosphodiesterase 5 (PDE 5)
PDE 5 preparations are obtained from human platelets by disruption (Microfluidizer®, 800 bar, 3 passes), followed by centrifugation (75 000 g, 60 min, 4° C.) and ion exchange chromatography of the supernatant on a Mono Q 10/10 column (linear sodium chloride gradient, elution with a 0.2-0.3M solution of sodium chloride in buffer (20 mM Hepes pH 7.2, 2 mM magnesium chloride). Fractions having PDE 5 activity are combined (PDE 5 preparation) and stored at −80° C.
To determine their in vitro action on human PDE 5, the test substances are dissolved in 100% DMSO and serially diluted. Typically, dilution series (1:3) from 200 μM to 0.091 μM are prepared (resulting final concentrations in the test: 4 μM to 0.0018 μM). In each case 2 μl of the diluted substance solutions are placed into the wells of microtitre plates (Isoplate-96/200 W; Perkin Elmer). Subsequently, 50 μl of a dilution of the above-described PDE 5 preparation are added. The dilution of the PDE 5 preparation is selected such that, during the later incubation, less than 70% of the substrate is converted (typical dilution: 1:100; dilution buffer: 50 mM tris/hydrochloric acid pH 7.5, 8.3 mM magnesium chloride, 1.7 mM EDTA, 0.2% BSA). The substrate, [8-^3H]cyclic guanosine-3′,5′-monophosphate (1 μCi/μl; Perkin Elmer) is diluted 1:2000 with assay buffer (50 mM tris/hydrochloric acid pH 7.5, 8.3 mM magnesium chloride, 1.7 mM EDTA) to a concentration of 0.0005 μCi/μl. By addition of 50 μl (0.025 μCi) of the diluted substrate, the enzyme reaction is finally started. The test mixtures are incubated at room temperature for 60 min and the reaction is stopped by adding 25 μl of a suspension of 18 mg/ml yttrium scintillation proximity beads in water (phosphodiesterase beads for SPA assays, RPNQ 0150, Perkin Elmer). The microtitre plates are sealed with a film and left to stand at room temperature for 60 min Subsequently, the plates are analysed for 30 s per well in a Microbeta scintillation counter (Perkin Elmer). IC50 values are determined using the graphic plot of the substance concentration against percentage PDE 5 inhibition.

The next assay concerns rabbit aorta rings. Nature of the assay: Vasorelaxant effect in vitro (rabbit aorta rings precontracted with phenylephrine). The settings on record: Oryctolagus cuniculus, phenylephrine contraction, read-out: IC50 (concentration needed to reduce the magnitude of the phenylephrine contraction by 50%). As for the experimental part:
B-1. Vasorelaxant Effect In Vitro
Rabbits are stunned by a blow to the neck and exsanguinated. The aorta is removed, freed from adhering tissue and divided into rings of width 1.5 mm, which are placed individually under prestress into 5 ml organ baths with carbogen-sparged Krebs-Henseleit solution at 37° C. having the following composition (each mM): sodium chloride: 119; potassium chloride: 4.8; calcium chloride dihydrate: 1; magnesium sulphate heptahydrate: 1.4; potassium dihydrogenphosphate: 1.2; sodium hydrogencarbonate: 25; glucose: 10. The contractile force is determined with Statham UC2 cells, amplified and digitalized using A/D transducers (DAS-1802 HC, Keithley Instruments Munich), and recorded in parallel on linear recorders.
To obtain a contraction, phenylephrine is added to the bath cumulatively in increasing concentration. After several control cycles, the substance to be studied is added in increasing dosage each time in every further run, and the magnitude of the contraction is compared with the magnitude of the contraction attained in the last preceding run. This is used to calculate the concentration needed to reduce the magnitude of the control value by 50% (IC50 value). The standard administration volume is 5 μl; the DMSO content in the bath solution corresponds to 0.1%.

Assay [1] has as its system recombinant guanylate cyclase reporter cell line. Nature of the assay: Effect on a recombinant guanylate cyclase reporter cell line. The format is cell-based. The conditions noted are these: read-out: MEC (minimal effective concentration). As for the experimental part:
B-2. Effect on a Recombinant Guanylate Cyclase Reporter Cell Line
The cellular action of the inventive compounds is determined on a recombinant guanylate cyclase reporter cell line as described in F. Wunder et al., Anal. Biochem. 339, 104-112 (2005).

As to `CC1(C)C(=O)Nc2nc(-c3nn(CCC(F)(F)C(F)(F)F)c4cc(Cl)ccc34)nnc21` [Example 26, 3-[6-Chloro-1-(3,3,4,4,4-pentafluorobutyl)-1H-indazol-3-yl]-7,7-dimethyl-5,7-dihydro-6H-pyrrolo[2,3-e][1,2,4]triazin-6-one], the figures for the IC50 against human PDE 5 and with rabbit aorta rings were 95 nM and 794 nM, respectively. For the same compound, the minimal effective concentration in assay [1] amounted to 0.3 µM.
For the compound `Cc1nc(-n2nc(Cc3ccccc3F)c3cc(F)ccc32)nc2c1C(C)(C)C(=O)N2` [Example 27, 2-[5-Fluoro-3-(2-fluorobenzyl)-1H-indazol-1-yl]-4,5,5-trimethyl-5,7-dihydro-6H-pyrrolo[2,3-d]pyrimidin-6-one], the IC50 was 340 nM on human PDE 5 and 1670 nM in the assay on rabbit aorta rings. Further, the minimal effective concentration in assay [1] is 0.3 µM.
The matching figures for `CCCc1nc(-n2nc(Cc3ccccc3F)c3ccccc32)nc2c1C(C)(C)C(=O)N2` [Example 28, 2-[3-(2-Fluorobenzyl)-1H-indazol-1-yl]-5,5-dimethyl-4-propyl-5,7-dihydro-6H-pyrrolo[2,3-d]-pyrimidin-6-one]: 450 nM, 10000 nM and 1 µM.
